Reference: article PMC4467461, “Small-molecule activation of SERCA2a SUMOylation for the treatment of heart failure” (Nature Communications, 2015)

Target: T1, SUMO E1 SAE1 V315F mutant (Homo sapiens, UniProt Q9UBE0+Q9UBT2, V315F)
T1 construct: GST (N); made in house; host or cells: Escherichia coli BL21
T1 sequence (Q9UBE0 1-346 V315F): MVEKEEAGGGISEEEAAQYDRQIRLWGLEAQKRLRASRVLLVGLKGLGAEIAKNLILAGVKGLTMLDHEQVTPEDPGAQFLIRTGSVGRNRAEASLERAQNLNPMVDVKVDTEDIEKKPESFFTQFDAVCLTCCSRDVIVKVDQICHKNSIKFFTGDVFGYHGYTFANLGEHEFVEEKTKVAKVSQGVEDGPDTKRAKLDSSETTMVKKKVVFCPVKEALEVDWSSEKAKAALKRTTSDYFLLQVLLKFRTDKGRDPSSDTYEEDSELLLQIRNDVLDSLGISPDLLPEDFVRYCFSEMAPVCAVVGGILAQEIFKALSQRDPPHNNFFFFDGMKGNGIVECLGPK
T1 sequence (Q9UBT2 1-640): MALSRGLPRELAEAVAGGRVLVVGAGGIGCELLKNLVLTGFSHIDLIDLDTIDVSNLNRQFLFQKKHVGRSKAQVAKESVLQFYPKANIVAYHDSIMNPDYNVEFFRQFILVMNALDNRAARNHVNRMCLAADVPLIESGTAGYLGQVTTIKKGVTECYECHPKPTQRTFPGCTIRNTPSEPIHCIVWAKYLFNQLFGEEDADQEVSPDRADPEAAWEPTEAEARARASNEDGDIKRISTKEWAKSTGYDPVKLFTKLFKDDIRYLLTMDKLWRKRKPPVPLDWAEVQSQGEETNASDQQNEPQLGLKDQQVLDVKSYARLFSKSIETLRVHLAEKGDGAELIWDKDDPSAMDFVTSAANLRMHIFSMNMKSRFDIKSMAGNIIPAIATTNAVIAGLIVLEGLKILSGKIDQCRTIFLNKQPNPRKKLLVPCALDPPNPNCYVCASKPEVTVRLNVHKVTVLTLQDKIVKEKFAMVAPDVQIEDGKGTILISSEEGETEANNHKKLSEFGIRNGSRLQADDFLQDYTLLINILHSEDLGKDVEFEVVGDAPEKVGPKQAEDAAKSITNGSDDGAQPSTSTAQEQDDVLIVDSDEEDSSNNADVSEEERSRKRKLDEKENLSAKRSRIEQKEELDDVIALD
Assay: SUMO E1 activity assays with SAE1 V315F mutant
Assay type: biochemical
Description: Figure 3 SUMO-specific activating enzyme, E1, is a direct target of N106. Mechanism of action of N106 on individual steps in the SUMOylation cascade in vitro. (a) Inorganic pyrophosphate resulting from ATP hydrolysis in E1-catalysed SUMO-1 activation in the presence of increasing concentration of N106 compound was assessed by fluorogenic pyrophosphate assay kit. Recombinant human SUMO-specific E1 (0.05 μM), human Ubc9 (0.25 μM), human SUMO-1 (12.5 μM) and ATP (1 mM) were incubated with increasing concentration of N106 for 30 min at 37 °C and quantified using a fluorescence microplate reader. (b) The SAE2-SUMO-1 conjugation was detected followed by western blotting with anti-SAE2 antibodies. SUMO E1 (0.05 μM), SUMO-1 (12.5 μM) and ATP (1 mM) were co-incubated with increasing concentration of N106 for 30 min at 37 °C. The reaction mixtures were separated on 7.5% SDS–PAGE gel under non-reducing conditions. (c) E2-SUMO-1 conjugation was visualized by western blotting with anti-Ubc9 antibody. SUMO E1 (0.05 μM), Ubc9 (0.25 μM), SUMO-1 (12.5 μM) and ATP (1 mM) were incubated without or with increasing concentration of N106 for 30 min at 37 °C. […] (e) ATP hydrolytic activity of WT and mutant SUMO E1 are determined. (f) The E1-SUMO-1 conjugation was detected followed by western blot analysis with anti-SAE2 antibody. *The SAE2-SUMO-1 conjugated bands. […]

COc1ccc(-c2nnc(Nc3nc4c(OC)cccc4s3)o2)cc1 [Compound N106, N-(4-methoxybenzo[d]thiazol-2-yl)-5-(4-methoxyphenyl)-1,3,4-oxadiazol-2-amine]
ATP hydrolysis activity with N106, compared with wild-type protein (V315F mutant): significantly lower
SUMO E1-SUMO and SUMO E2-SUMO conjugations in the presence of N106, compared with WT (V315F mutant SAE1): weaker
